Assay: UV absorbance (UV spectra), sunscreen properties
Assay type: physicochemical
Source text: FIG. 1 through 8 show UV spectra of 111 compounds sharing PABA “hot building block”, their 16 synthetic intermediates, and one compound with salicylic acid building block. Reference numerals identify compounds according to the numbering adopted in the Experimental section and elsewhere in the specification.
UV-B (290-320 nm) radiation is known to be harmful for human skin. Acute negative effects include inflammation, sunburns, pigmentation changes and hyperplasia. Chronic negative effects include photoaging, immunosuppression and photocarcinogenesis, including squamous cells, basal cells and melanoma skin cancer. The UV-B radiation is also responsible for 98% of cases of delayed erythema development.
Various sunscreen agents have been developed to protect human skin from this harmful UV-B radiation. One known class of such UV-B sunscreen agents is PABA and its various derivatives. Their UV-protecting properties are due to their strong UV absorbance (e266=15,000 for p-aminobenzoic acid). […] As such, these compounds are useful as sunscreen agents.

UV absorbance e266: 15,000
SMILES: Nc1ccc(C(=O)O)cc1 [Compound (59), 4-Aminobenzoic acid]

From US20060110743A1, “Drug evolution: drug design at hot spots” (priority 2004, published 2006)
